Data reported in ChEMBL document CHEMBL1614632, “Trend analysis of a database of intravenous pharmacokinetic parameters in humans for 670 drug compounds” (Drug Metab Dispos, 2008).

What was measured:
clinical [1] = conditions: human, in vivo, iv, t1/2
clinical [2] = conditions: human, in vivo, iv, CL
clinical [3] = conditions: human, in vivo, iv, Vdss
clinical [4] = conditions: human, in vivo, iv

| SMILES | half-life (clinical [1]) | clearance (clinical [2]) | Vd (clinical [3]) | MRT (clinical [4]) |
| --- | --- | --- | --- | --- |
| Cn1c(=O)c2c(ncn2C)n(C)c1=O [CAFFEINE] | 4.9 h | 1.4 mL/min/kg | 0.63 L/kg | 7.5 h |
| CN(C)CCc1c[nH]c2ccc(C[C@H]3COC(=O)N3)cc12 [ZOLMITRIPTAN] | 3.6 h | 6.7 mL/min/kg | 1.8 L/kg | 4.6 h |
| CC1=NS(=O)(=O)c2cc(Cl)ccc2N1 [DIAZOXIDE] | 48 h | 0.06 mL/min/kg | 0.21 L/kg | 58 h |
| C=CC[N+]12CC[C@@]34c5ccccc5N5/C=C6/[C@H]7C[C@H]8[C@@]9(CC[N@@+]8(CC=C)C/C7=C/CO)c7ccccc7N(/C=C(/[C@@H](C[C@@H]31)/C(=C\CO)C2)[C@H]54)[C@@H]69 (stereo partly specified) | 3.6 h | 1.3 mL/min/kg | 0.32 L/kg | 4.1 h |
| Cc1ccccc1N1C(=O)c2cc(S(N)(=O)=O)c(Cl)cc2NC1C (stereo unspecified) [METOLAZONE] | 20 h | 1.4 mL/min/kg | 1.6 L/kg | 19 h |
| Cc1cc(NC(=O)C2=C(O)c3ccccc3S(=O)(=O)N2C)no1 [ISOXICAM] | 33 h | 0.07 mL/min/kg | 0.19 L/kg | 44 h |
| Cc1ccnc2c1NC(=O)c1cccnc1N2C1CC1 [NEVIRAPINE] | 53 h | 0.3 mL/min/kg | 1.3 L/kg | 81 h |
| CN(C)CCN(Cc1cccs1)c1ccccn1 | 1.6 h | 28 mL/min/kg | 3.3 L/kg | 2 h |
| O=P1(NCCCl)OCCCN1CCCl (stereo unspecified) [IFOSFAMIDE] | 6.6 h | 1.1 mL/min/kg | 0.62 L/kg | 9.4 h |
| O=C1CN=C(c2ccccn2)c2cc(Br)ccc2N1 [BROMAZEPAM] | 21 h | 0.51 mL/min/kg | 0.85 L/kg | 28 h |
| Nc1ccn([C@@H]2CO[C@H](CO)O2)c(=O)n1 [TROXACITABINE] | 82 h | 2.4 mL/min/kg | 1 L/kg | 6.9 h |
| COc1ccc([C@]2(C#N)CC[C@@H](C(=O)O)CC2)cc1OC1CCCC1 [CILOMILAST] | 7.9 h | 0.5 mL/min/kg | 0.23 L/kg | 8.5 h |
| C#CCN(C)[C@H](C)Cc1ccccc1 [SELEGILINE] | 1.3 h | 20 mL/min/kg | 1.9 L/kg | 1.6 h |
| COc1ccccc1OCCNCC(O)COc1cccc2[nH]c3ccccc3c12 (stereo unspecified) [CARVEDILOL] | 2.4 h | 7.8 mL/min/kg | 1.3 L/kg | 2.8 h |
| CN1CC[C@]23c4c5ccc(O)c4O[C@H]2[C@@H](O[C@@H]2O[C@H](C(=O)O)[C@@H](O)[C@H](O)[C@H]2O)C=C[C@H]3[C@H]1C5 [MORPHINE GLUCURONIDE] | 1.4 h | 2.2 mL/min/kg | 0.12 L/kg | 0.91 h |
| CNS(=O)(=O)Cc1ccc2[nH]cc(CCN(C)C)c2c1 | 1.7 h | 19 mL/min/kg | 1.7 L/kg | 1.5 h |
| CC[C@]1(O)C[C@@H]2CN(CCc3c([nH]c4ccccc34)[C@@](C(=O)OC)(c3cc4c(cc3OC)N(C)[C@H]3[C@@](O)(C(N)=O)[C@H](O)[C@]5(CC)C=CCN6CC[C@]43[C@@H]65)C2)C1 [VINDESINE] | 35 h | 2.2 mL/min/kg | 5 L/kg | 38 h |
| C[C@H]1O[C@H](O[C@H]2[C@H](O)[C@@H](O)[C@@H](O[C@H]3[C@H](O)[C@@H](O)C(O)O[C@@H]3CO)O[C@@H]2CO)[C@H](O)[C@@H](O)[C@@H]1N[C@H]1C=C(CO)[C@@H](O)[C@H](O)[C@H]1O (stereo partly specified) [ACARBOSE] | 2.7 h | 2.2 mL/min/kg | 0.32 L/kg | 2.4 h |
| CCNCC(O)c1cccc(O)c1 (stereo unspecified) [ETILEFRINE] | 2.2 h | 14 mL/min/kg | 2.1 L/kg | 2.5 h |
| Nc1ncnc2c1ncn2CCOCP(=O)(O)O [ADEFOVIR] | 1.6 h | 3.7 mL/min/kg | 0.42 L/kg | 1.9 h |

| SMILES | half-life (clinical [1]) | clearance (clinical [2]) | Vd (clinical [3]) | MRT (clinical [4]) |
| --- | --- | --- | --- | --- |
| S=P(N1CC1)(N1CC1)N1CC1 [THIOTEPA] | 2.7 h | 6.7 mL/min/kg | 1.6 L/kg | 4 h |
| CCCCc1ncc(/C=C(\Cc2cccs2)C(=O)O)n1Cc1ccc(C(=O)O)cc1 [EPROSARTAN] | 2.1 h | 1.9 mL/min/kg | 0.17 L/kg | 1.5 h |
| CCCCCC/C=C\CCCCCCCCCC(=O)N[C@H]1[C@H](OC[C@H]2O[C@H](OP(=O)(O)O)[C@H](NC(=O)CC(=O)CCCCCCCCCCC)[C@@H](OCCCCCCCCCC)[C@@H]2O)O[C@H](COC)[C@@H](OP(=O)(O)O)[C@@H]1OCC[C@@H](CCCCCCC)OC [ERITORAN] | 51 h | 0.013 mL/min/kg | 0.048 L/kg | 62 h |
| CC1COc2c(N3CCN(C)CC3)c(F)cc3c(=O)c(C(=O)O)cn1c23 (stereo unspecified) [OFLOXACIN] | 8.9 h | 2.5 mL/min/kg | 1.6 L/kg | 11 h |
| C[C@@H]1CC2=CC(=O)CC[C@]2(C)[C@H]2CC[C@@]3(C)[C@@H](CC[C@@H]3O)[C@]12C | 0.65 h | 20 mL/min/kg | 0.8 L/kg | 0.67 h |
| N[C@@H]1CN(c2c(F)cc3c(=O)c(C(=O)O)cn([C@@H]4C[C@@H]4F)c3c2Cl)CC12CC2 [SITAFLOXACIN ANHYDROUS] | 6.6 h | 3.7 mL/min/kg | 1.5 L/kg | 6.7 h |
| CCCC[C@@H]1CC(=O)[C@]2(O)O[C@@H]3[C@@H](NC)[C@@H](O)[C@@H](NC)[C@H](O)[C@H]3O[C@@H]2O1 [TROSPECTOMYCIN] | 11 h | 1.7 mL/min/kg | 0.7 L/kg | 6.9 h |
| CN(C)[C@@H]1C(O)=C(C(N)=O)C(=O)[C@@]2(O)C(O)=C3C(=O)c4c(O)ccc(Cl)c4[C@@](C)(O)[C@H]3C[C@@H]12 [CHLORTETRACYCLINE] | 7 h | 2 mL/min/kg | 0.9 L/kg | 7.4 h |
| Nc1nc2c(ncn2CCC(CO)CO)c(=O)[nH]1 [PENCICLOVIR] | 2.1 h | 8.4 mL/min/kg | 1.1 L/kg | 2.4 h |
| CC(=O)N[C@H]1[C@H]([C@H](O)[C@H](O)CO)OC(C(=O)O)=C[C@@H]1N=C(N)N [ZANAMIVIR] | 1.7 h | 1.6 mL/min/kg | 0.23 L/kg | 2.4 h |
| NC(=O)CN1CC(O)CC1=O (stereo unspecified) [OXIRACETAM] | 7.5 h | 1.8 mL/min/kg | 0.55 L/kg | 4.9 h |
| C[C@](N)(Cc1ccc(O)c(O)c1)C(=O)O [METHYLDOPA] | 5.9 h | 3.5 mL/min/kg | 0.69 L/kg | 3.3 h |
| C[C@H](N[C@@H](CCc1ccccc1)C(=O)O)C(=O)N1CCC[C@H]1C(=O)O [ENALAPRILAT ANHYDROUS] | 39 h | 1.6 mL/min/kg | 0.38 L/kg | 4 h |
| Nc1nc(=O)[nH]cc1F [FLUCYTOSINE] | 4.2 h | 2 mL/min/kg | 0.68 L/kg | 5.7 h |
| CN1CCN(C(=O)OC2c3nccnc3C(=O)N2c2ccc(Cl)cn2)CC1 (stereo unspecified) [ZOPICLONE] | 5.2 h | 3.3 mL/min/kg | 1.3 L/kg | 6.6 h |
| O=C1c2ccccc2S(=O)(=O)N1CCCCNC[C@H]1CCc2ccccc2O1 [REPINOTAN] | 1.2 h | 2.2 mL/min/kg | 0.21 L/kg | 1.6 h |
| C=CC[C@@H]1/C=C(\C)C[C@H](C)C[C@H](OC)[C@H]2O[C@@](O)(C(=O)C(=O)N3CCCC[C@H]3C(=O)O[C@H](/C(C)=C/[C@@H]3CC[C@@H](O)[C@H](OC)C3)[C@H](C)[C@@H](O)CC1=O)[C@H](C)C[C@@H]2OC [TACROLIMUS ANHYDROUS] | 26 h | 0.7 mL/min/kg | 1.2 L/kg | 27 h |
| O=C1CN=C(c2ccccc2)c2cc([N+](=O)[O-])ccc2N1 [NITRAZEPAM] | 26 h | 0.86 mL/min/kg | 1.7 L/kg | 33 h |
| CN(CC(N)=O)C(=O)N(CCCl)N=O [SARCNU] | 1 h | 9 mL/min/kg | 0.76 L/kg | 1.4 h |
